Results from patent US12221656B2, “Methods and materials for assessing homologous recombination deficiency” (Myriad Genetics, Inc., priority 2014, dated 2025).

Tested on: triple negative breast cancer (TNBC)
Test: Neoadjuvant cisplatin cohort, pathologic response in triple negative breast cancer
Format: in vivo, human
Details: for Pathologic complete response (pCR = yes), % response / Pathologic response (PR = yes), % response: secondary analysis, n=51
Protocol: Analysis of a neoadjuvant TNBC cohort treated with cisplatin was examined relative to the relationship between all three HRD scores and response. All p values were from logistic regression models with response to cisplatin as the dependent variable.
HR Deficiency status was determined for 62 of the 70 samples (70 individual patients) received from a cisplatin cohort (8 had insufficient tumors for analysis). Of these, 31 (50%) were HR deficient, 22 (35%) were non-HR deficient, and 9 (15%) were undetermined. FIG. 15 provides a histogram showing the distribution of HRD scores in the cohort. […] were considered to have high HRD (see also, Example 5). […] Pathologic complete response (pCR), which is associated with long-term survival, was defined as a residual cancer burden (RBC) of 0 and observed in 11/59 (19%) samples. […] These overall response rates correlated with monotherapy expectations.
Statistical analyses followed a predefined Statistical Analysis Plan (SAP), which included primary, secondary, and BRCA wild-type subset analyses.

N.N.[Cl][Pt][Cl] [cisplatin]
Pathologic complete response (pCR = yes), % response (BRCA Mutant): 3 (33.3%)
Pathologic response (PR = yes), % response (BRCA Mutant): 5 (55.6%)
Pathologic complete response (pCR = yes), % response (BRCA Non-mutant): 5 (11.9%)
Pathologic response (PR = yes), % response (BRCA Non-mutant): 13 (31.0%)
Pathologic complete response (pCR), residual cancer burden of 0 (whole cisplatin cohort, 11/59 samples): 19%
Pathologic response (PR), residual cancer burden of 0 or 1 (whole cisplatin cohort, 22/59 samples): 37%
